Assay results published in PubChem BioAssay AID256 (DTP/NCI, 2004).
Inconclusive results and toxic doses are left out.

Test system: CD2F1 mice, L1210 leukemia ip, survival T/C
Experiment: NCI In Vivo Anticancer Drug Screen. Data for tumor model L1210 Leukemia (intraperitoneal) in CD2F1 (CDF1) mice
Conditions: higher = longer survival
Outline: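 Transplantable tumor in mice; compound-treated vs vehicle-treated groups. Read-out = treated/control ratio of the measured endpoint.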

[1] = endpoint: mean survival time, dose: 100.0 mg/kg/injection, schedule: Q04DX003 (ip), vehicle: saline with Tween-80
[2] = endpoint: mean survival time, dose: 200.0 mg/kg/injection, schedule: Q04DX003 (ip), vehicle: saline with Tween-80
[3] = endpoint: mean survival time, dose: 400.0 mg/kg/injection, schedule: Q04DX003 (ip), vehicle: saline with Tween-80
[4] = endpoint: mean survival time, dose: 100.0 mg/kg/injection, schedule: Q01DX009 (ip), vehicle: other

With `O=C1OC(Cc2ccccc2)(c2ccccc2)c2ccccc21` (stereo not given) the T/C [1] was 88 % of control and the T/C [2] was 88 % of control.

`N#CSCc1c(Cl)c(Cl)c(CSC#N)c(Cl)c1Cl` was tested, and the T/C (endpoint: mean survival time, dose: 75.0 mg/kg/injection, schedule: Q04DX003 (ip), vehicle: saline) was 95 % of control, the T/C (endpoint: mean survival time, dose: 150.0 mg/kg/injection, schedule: Q04DX003 (ip), vehicle: saline) was 98 % of control and the T/C (endpoint: mean survival time, dose: 300.0 mg/kg/injection, schedule: Q04DX003 (ip), vehicle: saline) was 98 % of control.

With `O=C(Nc1ncnc2c1[nH]c(=O)n2C1OC(CO)C2OC21)c1ccccc1` (stereo not given) the T/C (endpoint: mean survival time, dose: 12.5 mg/kg/injection, schedule: Q01DX005 (ip), vehicle: distilled water + Tween-80) was 92 % of control, the T/C (endpoint: mean survival time, dose: 25.0 mg/kg/injection, schedule: Q01DX005 (ip), vehicle: distilled water + Tween-80) was 100 % of control and the T/C (endpoint: mean survival time, dose: 50.0 mg/kg/injection, schedule: Q01DX005 (ip), vehicle: distilled water + Tween-80) was 95 % of control. The T/C (endpoint: mean survival time, dose: 100.0 mg/kg/injection, schedule: Q01DX005 (ip), vehicle: distilled water + Tween-80) was 90 % of control and the T/C (endpoint: mean survival time, dose: 200.0 mg/kg/injection, schedule: Q01DX005 (ip), vehicle: distilled water + Tween-80) was 93 % of control.

In the case of `CCC(=O)OCCNc1ccc([N+](=O)[O-])cc1[N+](=O)[O-]`, the T/C (endpoint: mean survival time, dose: 100.0 mg/kg/injection, schedule: Q04DX002 (ip), vehicle: other) is reported as 106 % of control, the T/C (endpoint: mean survival time, dose: 200.0 mg/kg/injection, schedule: Q04DX002 (ip), vehicle: other) is reported as 109 % of control and the T/C (endpoint: mean survival time, dose: 400.0 mg/kg/injection, schedule: Q04DX002 (ip), vehicle: other) is reported as 91 % of control.

`CC1(C)CC(O)(Cc2ccccc2)C(O)c2ccccc21` (stereo not given) was tested, and the T/C [1] was 93 % of control, the T/C [2] was 97 % of control and the T/C [3] was 93 % of control.

With `C1CCC2(CC1)SSC1(CCCCC1)S2` the T/C [4] was 108 % of control, the T/C (endpoint: mean survival time, dose: 200.0 mg/kg/injection, schedule: Q01DX009 (ip), vehicle: other) was 100 % of control and the T/C (endpoint: mean survival time, dose: 400.0 mg/kg/injection, schedule: Q01DX009 (ip), vehicle: other) was 110 % of control.

In the case of `CC1CC(C)(C)NC(C)(C(C)CC(C)(C)C)O1` (stereo not given), the T/C (endpoint: mean survival time, dose: 50.0 mg/kg/injection, schedule: Q04DX002 (ip), vehicle: saline) is reported as 108 % of control, the T/C (endpoint: mean survival time, dose: 100.0 mg/kg/injection, schedule: Q01DX001 (ip), vehicle: saline with Tween-80) is reported as 93 % of control and the T/C (endpoint: mean survival time, dose: 100.0 mg/kg/injection, schedule: Q04DX002 (ip), vehicle: saline) is reported as 104 % of control. The T/C (endpoint: mean survival time, dose: 200.0 mg/kg/injection, schedule: Q01DX001 (ip), vehicle: saline with Tween-80) was 93 % of control and the T/C (endpoint: mean survival time, dose: 200.0 mg/kg/injection, schedule: Q04DX002 (ip), vehicle: saline) was 93 % of control.

With `Cc1c2cnccc2c(C)c2c1c1ccccc1n2CCO` the T/C [1] was 123 % of control, the T/C [2] was 117 % of control and the T/C (endpoint: mean survival time, dose: 400.0 mg/kg/injection, schedule: Q01DX009 (ip), vehicle: saline with Tween-80) was 170 % of control. For the same compound, the T/C [3] was 162 % of control.

In the case of `COc1cccc(CCNc2ccncc2N)c1`, the T/C (endpoint: mean survival time, dose: 75.0 mg/kg/injection, schedule: Q01DX001 (ip), vehicle: saline) is reported as 96 % of control.

For `Cc1ccc(N2CCN(CCCCCC(=O)O)CC2)cc1Cl`, the T/C [1] was 106 % of control, the T/C (endpoint: mean survival time, dose: 176.0 mg/kg/injection, schedule: Q04DX003 (ip), vehicle: saline with Tween-80) was 117 % of control and the T/C [2] was 104 % of control. The T/C (endpoint: mean survival time, dose: 264.0 mg/kg/injection, schedule: Q04DX003 (ip), vehicle: saline with Tween-80) was 113 % of control.

`COc1ccc2nc3cc(Cl)ccc3c(Nc3ccc(NS(C)(=O)=O)cc3)c2n1` was tested, and the T/C (endpoint: mean survival time, dose: 12.5 mg/kg/injection, schedule: Q01DX009 (ip), vehicle: other) was 96 % of control, the T/C (endpoint: mean survival time, dose: 25.0 mg/kg/injection, schedule: Q01DX009 (ip), vehicle: other) was 104 % of control and the T/C (endpoint: mean survival time, dose: 50.0 mg/kg/injection, schedule: Q01DX009 (ip), vehicle: other) was 96 % of control. For the same compound, the T/C [4] was 94 % of control.

In the case of `Nc1nc([Se]c2nc(N)nc3c2ncn3C2OC(CO)C(O)C2O)c2ncn(C3OC(CO)C(O)C3O)c2n1` (stereo not given), the T/C (endpoint: median survival time, dose: 36.0 mg/kg/injection, schedule: Q01DX005 (ip), vehicle: distilled water + Tween-80) is reported as 156 % of control and the T/C (endpoint: median survival time, dose: 60.0 mg/kg/injection, schedule: Q01DX005 (ip), vehicle: distilled water + Tween-80) is reported as 162 % of control.

`CC1CN1CCCNC(=O)C(=O)NCCCN1CC1C` (stereo not given) was tested, and the T/C (endpoint: mean survival time, dose: 100.0 mg/kg/injection, schedule: Q01DX001 (ip), vehicle: saline) was 182 % of control.
